# Assay results from paper PMC3928115, “Organophosphate-Induced Changes in the PKA Regulatory Function of Swiss Cheese/NTE Lead to Behavioral Deficits and Neurodegeneration” (PLoS ONE, 2014).
# Target: T1, Swiss Cheese (SWS) (Drosophila melanogaster, UniProt Q9U969)
# T1 construct: native full-length SWS in fly head homogenate, not purified; sws1 null mutant used as control
# Assay: esterase activity in fly head homogenates
# Format: biochemical
# Conditions: untreated flies; activity very low in sws1 null, raised to about 160% with SWS overexpression
# T1 sequence (Q9U969 whole entry): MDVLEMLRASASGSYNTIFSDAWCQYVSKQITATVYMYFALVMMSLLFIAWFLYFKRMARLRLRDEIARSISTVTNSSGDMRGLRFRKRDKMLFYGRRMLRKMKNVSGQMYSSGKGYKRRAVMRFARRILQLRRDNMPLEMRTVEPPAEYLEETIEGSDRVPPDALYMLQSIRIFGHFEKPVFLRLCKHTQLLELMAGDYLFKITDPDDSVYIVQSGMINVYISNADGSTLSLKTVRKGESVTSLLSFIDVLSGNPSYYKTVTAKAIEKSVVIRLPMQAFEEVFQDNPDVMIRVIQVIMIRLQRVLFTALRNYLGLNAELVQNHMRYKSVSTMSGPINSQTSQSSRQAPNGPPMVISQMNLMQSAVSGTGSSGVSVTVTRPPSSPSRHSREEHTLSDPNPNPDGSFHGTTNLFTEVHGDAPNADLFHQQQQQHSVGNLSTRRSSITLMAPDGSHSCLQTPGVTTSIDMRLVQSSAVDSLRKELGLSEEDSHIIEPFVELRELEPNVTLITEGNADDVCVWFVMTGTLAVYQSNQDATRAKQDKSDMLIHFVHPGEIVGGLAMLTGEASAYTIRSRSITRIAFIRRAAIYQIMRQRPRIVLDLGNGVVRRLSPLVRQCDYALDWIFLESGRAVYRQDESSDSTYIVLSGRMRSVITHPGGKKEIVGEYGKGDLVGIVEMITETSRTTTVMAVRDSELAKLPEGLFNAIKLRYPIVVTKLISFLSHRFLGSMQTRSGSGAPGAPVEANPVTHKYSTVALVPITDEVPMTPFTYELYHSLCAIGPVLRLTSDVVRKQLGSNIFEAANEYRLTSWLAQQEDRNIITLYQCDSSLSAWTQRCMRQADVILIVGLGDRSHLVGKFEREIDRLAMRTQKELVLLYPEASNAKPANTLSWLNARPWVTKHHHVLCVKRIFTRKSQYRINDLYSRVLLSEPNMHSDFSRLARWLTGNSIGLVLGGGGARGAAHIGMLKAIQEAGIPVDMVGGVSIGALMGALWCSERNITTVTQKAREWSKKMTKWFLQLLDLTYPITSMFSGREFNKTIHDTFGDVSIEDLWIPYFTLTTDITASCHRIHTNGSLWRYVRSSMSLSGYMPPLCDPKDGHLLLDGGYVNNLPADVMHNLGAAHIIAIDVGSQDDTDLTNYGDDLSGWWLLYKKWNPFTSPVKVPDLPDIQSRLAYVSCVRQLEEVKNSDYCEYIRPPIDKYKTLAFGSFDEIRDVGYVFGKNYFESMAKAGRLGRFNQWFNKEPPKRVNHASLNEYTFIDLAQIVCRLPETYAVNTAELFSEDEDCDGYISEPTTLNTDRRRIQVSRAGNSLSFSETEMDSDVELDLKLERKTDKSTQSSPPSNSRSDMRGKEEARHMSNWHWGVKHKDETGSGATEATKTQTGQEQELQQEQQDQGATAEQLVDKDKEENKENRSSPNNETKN
structure (smiles),measurement,value
CCCCC(=O)Oc1ccccc1 [phenyl valerate],esterase activity in fly head homogenates,"hydrolyzing activity against phenyl valerate, a standard substrate to detect NTE activity"
